# In patent publication US10883962B2, “Electrical double layer in nanopores for detection and identification of molecules and submolecular units” (University of Kentucky Research Foundation, priority 2017, dated 2021):
# What was measured:
# [1] = Expected valence charge of analytes and ions based on pKas; format: physicochemical; conditions: for Expected valence charge: maximal negative charge, intraluminal pH of 12; for Valence charge level (Zanalyte): used in the empirical model, Example 2
# Text: In order to investigate any dependency of the signal on the analyte concentration, the concentrations of the molecular analytes were varied from 10^−8 to 10^−2 M in 10^−5 M NaF solution. Because NaF dissociates into Na^+ and F^−, and F^− will form HF in solution (due to HF being a weak acid), it was important to ensure that the concentration of HF was negligible compared with the concentration of the molecular analytes and supporting electrolytes. […] The specific analytes used in this study were chosen to have distinct acid dissociation constants (pKas) and to be relatively similar in size (Table 2). […] NaCl was chosen as the supporting electrolyte in this pH experiment in order to maintain a homogeneous ion population with the titration reagents, NaOH and HCl. It was desirable to avoid using HF as a titration reagent, due to the risk of damaging the nanopore device and because HF is a weak acid. In low pH conditions, the concentration of undissociated HF would increase to non-negligible levels. Since HCl and NaOH are a strong acid and base, respectively, there was no risk of producing undissociated molecules at low or high pHs. […] In order to characterize this energetic balance, we estimate the pH of the intraluminal environment by considering the variable valence charges and pKas of the analytes. Table 3 lists the expected charge on each analyte at different pHs based on the pKas of the individual analytes.
# [2] = Density and estimated spherical radius of analytes and supporting ions; format: physicochemical
# [3] = cited from earlier work
# [4] = Saturation of NaF solution; format: physicochemical; conditions: in this study
# Text: The SNR is consistent for electrolyte concentrations <1 M, and the sudden decrease in SNR at 1 M NaF is indicative of a saturation effect, where saturation of the solution would preclude significant changes to the electrochemical potential of the EDL. By considering the charge density and steady state double layer potential as response curves, we can explain the loss of signal quality at high concentrations of supporting electrolyte (FIG. 3(c)). The increase in steady-state potential and charge density (calculated from the model) slows at high concentrations, and a similar effect occurs experimentally to the steady state double layer potential. The decrease in slope of the response curves at high concentration will result in smaller signals from the analytes, resulting in the decrease in SNR observed at high concentrations of supporting electrolyte. Since the measured steady state potential and solution saturation follow similar curves, this may be a useful method for quantitatively characterizing solutions, as well as a method of characterizing individual analyte molecules.
# [5] = 21° C.; cited from earlier work
Expected valence charge [1],Valence charge at pH ([1]; pH 1),"Valence charge at pH ([1]; pH 2, 3)",Valence charge at pH ([1]; pH 4),"Valence charge at pH ([1]; pH 5, 6)","Valence charge at pH ([1]; pH 7, 8, 9, 10)",Valence charge at pH ([1]; pH 11),Valence charge at pH ([1]; pH 12),Valence charge level (Zanalyte) [1],Estimated spherical radius [2],Saturated NaF solution reached [4],SMILES,pKa 1 [3],pKa 2 [3],Saturation of NaF [5]
,,,,,,,,,,approximately 1 M,[F-].[Na+] [NaF],,,0.96 M
1,,,,,,,,,0.21 nm,,[Na+] [Na^+],,,
−1,0,−1,−1,−1,−1,−1,−1,−1,0.27 nm,,O=C(O)C(=O)O [Oxalic acid],,,

# Continued, molecule first:
SMILES,Expected valence charge [1],Valence charge at pH ([1]; pH 1),"Valence charge at pH ([1]; pH 2, 3)",Valence charge at pH ([1]; pH 4),"Valence charge at pH ([1]; pH 5, 6)","Valence charge at pH ([1]; pH 7, 8, 9, 10)",Valence charge at pH ([1]; pH 11),Valence charge at pH ([1]; pH 12),Valence charge level (Zanalyte) [1],Estimated spherical radius [2],Saturated NaF solution reached [4],pKa 1 [3],pKa 2 [3],Saturation of NaF [5]
O=C(O)CC(O)(CC(=O)O)C(=O)O [Citric Acid],−3,0,0,−1,−2,−3,−3,−3,−3,0.37 nm,,,,
Cl [Cl−],,,,,,,,,,0.21 nm,,,,
F [F−],−1,,,,,,,,,0.17 nm,,,,
Oc1ccc(O)cc1 [Hydroquinone],−1,0,0,0,0,0,−1,−1,−1,0.32 nm,,10.35,,
[K+] [K^+],1,,,,,,,,,0.26 nm,,,,
O=C1O[C@H]([C@@H](O)CO)C(O)=C1O [L-Ascorbic acid],−2,0,0,0,−1,−1,−1,−2,−2,0.35 nm,,,11.7,
